From patent US10889581B2, “Cyclopropyl fused thiazine derivatives as beta-secretase inhibitors and methods of use” (AMGEN INC., priority 2016, dated 2021)

Key:
[1] = biological target: T1, BACE1 (Homo sapiens (Human), UniProt P56817); test: In vitro enzymatic BACE1 FRET assay; type: biochemical; conditions: pH 4.5, read-out: BACE1 Enzyme IC50
Target sequence in this assay (P56817 46-501): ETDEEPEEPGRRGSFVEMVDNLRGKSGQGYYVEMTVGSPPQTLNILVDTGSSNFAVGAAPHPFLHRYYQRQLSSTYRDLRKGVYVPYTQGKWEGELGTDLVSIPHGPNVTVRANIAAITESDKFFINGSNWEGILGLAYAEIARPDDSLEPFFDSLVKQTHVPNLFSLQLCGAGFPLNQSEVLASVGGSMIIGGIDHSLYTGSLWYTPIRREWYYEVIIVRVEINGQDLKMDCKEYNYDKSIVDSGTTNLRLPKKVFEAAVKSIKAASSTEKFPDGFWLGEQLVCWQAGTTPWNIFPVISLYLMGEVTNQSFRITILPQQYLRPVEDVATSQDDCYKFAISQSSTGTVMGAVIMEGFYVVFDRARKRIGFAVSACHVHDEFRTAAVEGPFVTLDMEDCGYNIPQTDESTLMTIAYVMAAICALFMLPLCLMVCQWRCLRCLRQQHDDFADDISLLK

[2] = biological target: Recombinant CatD (Homo sapiens (Human), UniProt P07339); test: In vitro enzymatic Cathepsin D (CatD) FRET assay; type: biochemical; conditions: pH 3.5, read-out: Cat D Enzyme IC50
[3] = biological target: human recombinant BACE2 (Homo sapiens (Human), UniProt Q9Y5Z0); test: In vitro enzymatic BACE2 FRET assay; type: biochemical; conditions: pH 4.5, read-out: BACE2 Enzyme IC50
[4] = biological target: T1, BACE1; test: In vitro BACE1 cell-based assay (Aβ40 in conditioned medium of cells stably expressing APP, HTRF)
Protocol: In Vitro BACE1 Cell-Based Assay
The cell-based assay measures inhibition or reduction of Aβ40 in conditioned medium of test compound treated cells expressing amyloid precursor protein. Cells stably expressing Amyloid Precursor Protein (APP) were plated at a density of 45K cells/well in 384 well plates (Corning/BioCoat 354663). The test compounds were then added to cells in 22-point dose response concentrations with the starting concentration being 62.5 μM. The compounds were diluted from stock solutions in DMSO and the final DMSO concentration of the test compounds on cells was 0.625%. The cells were cultivated overnight at 37° C. and 5% CO2 in DMEM supplemented with 10% FBS. After 24 h of incubation with the test compounds, the conditioned media was collected and the Aβ40 levels were determined using HTRF (Homogeneous Time Resolved Fluorescence). The IC50 of the compound was calculated from the percent of control or percent inhibition of Aβ40 as a function of the concentration of the test compound.
The HTRF to detect Aβ40 was performed in 384 well plates (Costar 3658). The antibody pair that were used to detect Aβ40 from cell supernatants were ConfAb40 antibody (Amgen in-house) and biotinylated 6E10 (BIOLEGEND). As an alternative to ConfAb40, a commercially available antibody, Anti-beta Amyloid 1-40 antibody [BDI350] from Abcam, Cambridge, Mass. 02139-1517 (Product code: ab20068), may be used in this assay. The concentrations were 0.35 μg/mL of ConfAb40 antibody and 1.33 μg/mL of 6E10-biotinylated antibody, as well as 4.5 μg/mL of Streptavidin Allophycocyanin Conjugate (ThermoFisher Scientific) in HTRF Buffer ([…], 1% BSA, 0.5% Tween 20).
The conditioned media was incubated with above antibodies and Streptavidin Allophycocyanin Conjugate for 30-60 minutes at 23° C. The final readout was performed on Envision from PerkinElmer.
Target sequence in this assay (P56817 46-501, species assumed): as the sequence (P56817 46-501) above

[5] = Aβ40, 24 h incubation, read-out: BACE1 Cell IC50

Sequence of human recombinant BACE2 (Q9Y5Z0 63-518): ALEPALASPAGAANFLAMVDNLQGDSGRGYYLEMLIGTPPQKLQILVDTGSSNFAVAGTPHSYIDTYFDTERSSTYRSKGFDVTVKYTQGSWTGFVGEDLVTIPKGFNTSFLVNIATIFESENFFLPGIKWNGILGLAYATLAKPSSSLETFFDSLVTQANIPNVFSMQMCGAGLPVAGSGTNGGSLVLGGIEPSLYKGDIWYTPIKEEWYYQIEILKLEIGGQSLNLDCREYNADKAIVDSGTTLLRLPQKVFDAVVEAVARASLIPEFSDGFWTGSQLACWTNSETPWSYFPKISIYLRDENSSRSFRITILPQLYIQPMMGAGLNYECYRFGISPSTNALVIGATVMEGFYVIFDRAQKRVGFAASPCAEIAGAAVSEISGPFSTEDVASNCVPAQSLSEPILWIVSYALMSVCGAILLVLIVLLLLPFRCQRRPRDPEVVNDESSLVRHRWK
Sequence of Recombinant CatD (P07339 65-412): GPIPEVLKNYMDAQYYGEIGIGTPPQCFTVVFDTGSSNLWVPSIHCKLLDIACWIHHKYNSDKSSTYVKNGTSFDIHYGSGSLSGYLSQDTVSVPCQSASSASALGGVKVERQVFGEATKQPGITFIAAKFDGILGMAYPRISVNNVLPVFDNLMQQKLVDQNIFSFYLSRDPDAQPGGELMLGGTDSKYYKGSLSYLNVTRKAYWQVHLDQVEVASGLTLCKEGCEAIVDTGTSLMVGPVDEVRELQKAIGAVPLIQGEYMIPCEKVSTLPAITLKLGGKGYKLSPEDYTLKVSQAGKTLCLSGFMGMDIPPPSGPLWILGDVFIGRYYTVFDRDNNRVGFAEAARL

SMILES	IC50 [1]	IC50 [2]	IC50 [3]	IC50 [4, 5]	IC50 [4]
C#Cc1ccc(F)c([C@@]2(C)N=C(N)S[C@@]3(C(=O)N(C)C)C[C@H]32)c1 [Example 123d, (1S,5S,6S)-3-amino-5-(5-ethynyl-2-fluorophenyl)-N,N,5-trimethyl-2-thia-4-azabicyclo[4.1.0]hept-3-ene-1-carboxamide]	0.378 µM	50.5 µM	0.142 µM	0.328 µM	–
NC1=N[C@](CF)(c2cc(C#Cc3cc(Cl)ccn3)ccc2F)[C@@H]2C[C@]2(CF)S1 [Example 138, (1S,5S,6S)-5-(5-((4-chloropyridin-2-yl)ethynyl)-2-fluorophenyl)-1,5-bis(fluoromethyl)-2-thia-4-azabicyclo[4.1.0]hept-3-en-3-amine]	1.12 µM	903 µM	0.077 µM	–	4.85 µM
Cc1cc(C#N)cnc1C#Cc1cnc(F)c([C@@]2(C)N=C(N)S[C@@]3(C(=O)N4CCOCC4)CC32)c1 (stereo partly drawn) [Example 136, 6-((5-((1S,5S)-3-amino-5-methyl-1-(morpholine-4-carbonyl)-2-thia-4-azabicyclo[4.1.0]hept-3-en-5-yl)-6-fluoropyridin-3-yl)ethynyl)-5-methylnicotinonitrile]	0.037 µM	> 400 µM	0.974 µM	–	0.181 µM
N#Cc1cnc(C#Cc2ccc(F)c([C@@]3(CF)N=C(N)S[C@@]4(CF)C[C@H]43)c2)s1 [Example 109, 2-((3-((1S,5S,6S)-3-amino-1,5-bis(fluoromethyl)-2-thia-4-azabicyclo[4.1.0]hept-3-en-5-yl)-4-fluorophenyl)ethynyl)thiazole-5-carbonitrile]	0.057 µM	705 µM	0.092 µM	1.11 µM	–
C#CCOc1ccc(C#Cc2ccc(F)c([C@@]3(C)N=C(N)S[C@@]4(C(=O)N(C)C)C[C@H]43)c2)nc1 [Example 130, (1S,5S,6S)-3-amino-5-(2-fluoro-5-((5-(2-propyn-1-yloxy)-2-pyridinyl)ethynyl)phenyl)-N,N,5-trimethyl-2-thia-4-azabicyclo[4.1.0]hept-3-ene-1-carboxamide]	0.161 µM	926 µM	0.432 µM	0.152 µM	–
COC[C@]12CC1[C@@](C)(c1cc(C#Cc3ccc(C#N)cn3)ccc1F)N=C(N)S2 (stereo partly drawn) [Example 133, 6-((3-((1S,5S)-3-amino-1-(methoxymethyl)-5-methyl-2-thia-4-azabicyclo[4.1.0]hept-3-en-5-yl)-4-fluorophenyl)ethynyl)nicotinonitrile]	0.097 µM	> 400 µM	2.33 µM	–	0.059 µM
Cc1cc(C#N)cnc1C#Cc1ccc(F)c([C@@]2(CF)N=C(N)S[C@@]3(C(=O)N(C)C)C[C@H]32)c1 [Example 127, (1S,5S,6S)-3-amino-5-(5-((5-cyano-3-methylpyridin-2-yl)ethynyl)-2-fluorophenyl)-5-(fluoromethyl)-N,N-dimethyl-2-thia-4-azabicyclo[4.1.0]hept-3-ene-1-carboxamide]	0.002 µM	969 µM	0.077 µM	–	0.022 µM
Cc1cc(C#N)cnc1C#Cc1ccc(F)c([C@@]2(C)N=C(N)S[C@@]3(C(=O)N4CCCC4)C[C@H]32)c1 [Example 128, 6-((3-((1S,5S,6S)-3-amino-5-methyl-1-(pyrrolidine-1-carbonyl)-2-thia-4-azabicyclo[4.1.0]hept-3-en-5-yl)-4-fluorophenyl)ethynyl)-5-methylnicotinonitrile]	0.002 µM	508 µM	0.423 µM	–	0.002 µM
Cc1cc(C#N)cnc1C#Cc1cnc(F)c([C@@]2(C)N=C(N)S[C@@]3(C(=O)N4CCCC4)CC32)c1 (stereo partly drawn) [Example 137, 6-((5-((1S,5S)-3-amino-5-methyl-1-(pyrrolidine-1-carbonyl)-2-thia-4-azabicyclo[4.1.0]hept-3-en-5-yl)-6-fluoropyridin-3-yl)ethynyl)-5-methylnicotinonitrile]	0.011 µM	> 400 µM	0.474 µM	–	0.035 µM

The next lines start with results.

IC50 [1]	IC50 [2]	IC50 [3]	IC50 [4, 5]	SMILES	IC50 [4]
0.021 µM	268 µM	0.617 µM	0.075 µM	Cc1cc(C#N)cnc1C#Cc1ccc(F)c([C@@]2(C)N=C(N)S[C@@]3(C#N)C[C@H]32)c1 [Example 126, (1S,5S,6S)-3-amino-5-(5-((5-cyano-3-methylpyridin-2-yl)ethynyl)-2-fluorophenyl)-5-methyl-2-thia-4-azabicyclo[4.1.0]hept-3-ene-1-carbonitrile]	–
0.021 µM	169 µM	0.012 µM	0.029 µM	NC1=N[C@](CF)(c2cc(C#Cc3ncc(Cl)cn3)ccc2F)[C@@H]2C[C@]2(/C=C/C(=O)N2CCOCC2)S1 [Example 117, (E)-3-((1R,5S,6S)-3-amino-5-(5-((5-chloropyrimidin-2-yl)ethynyl)-2-fluorophenyl)-5-(fluoromethyl)-2-thia-4-azabicyclo[4.1.0]hept-3-en-1-yl)-1-morpholinoprop-2-en-1-one]	–
0.047 µM	1160 µM	2.08 µM	0.355 µM	C[C@]1(c2cc(C#Cc3ccc(C#N)cn3)ccc2F)N=C(N)S[C@]2(CO)[C@H]1C2(F)F [Example 110, 6-((3-((1S,5S,6R)-3-amino-7,7-difluoro-1-(hydroxymethyl)-5-methyl-2-thia-4-azabicyclo[4.1.0]hept-3-en-5-yl)-4-fluorophenyl)ethynyl)nicotinonitrile]	–
0.049 µM	335 µM	0.037 µM	0.153 µM	N#Cc1cnc(C#Cc2ccc(F)c([C@@]3(CF)N=C(N)S[C@@]4(/C=C/C(=O)N5CCOCC5)C[C@H]43)c2)c(F)c1 [Example 124, 6-((3-((1R,5S,6S)-3-amino-5-(fluoromethyl)-1-((E)-3-morpholino-3-oxoprop-1-en-1-yl)-2-thia-4-azabicyclo[4.1.0]hept-3-en-5-yl)-4-fluorophenyl)ethynyl)-5-fluoronicotinonitrile]	–
0.109 µM	1030 µM	2.18 µM	0.142 µM	Cc1cn(C[C@]23C[C@H]2[C@@](CF)(c2cc(C#Cc4ccc(C#N)cn4)ccc2F)N=C(N)S3)nn1 [Example 115, 6-((3-((1S,5S,6S)-3-amino-5-(fluoromethyl)-1-((4-methyl-1H-1,2,3-triazol-1-yl)methyl)-2-thia-4-azabicyclo[4.1.0]hept-3-en-5-yl)-4-fluorophenyl)ethynyl)nicotinonitrile]	–
0.006 µM	26.2 µM	0.017 µM	0.023 µM	Cc1cc(C#Cc2ccc(F)c([C@@]3(CF)N=C(N)S[C@@]4(/C=C/C(=O)N5CCOCC5)C[C@H]43)c2)sn1 [Example 118, (E)-3-((1R,5S,6S)-3-amino-5-(2-fluoro-5-((3-methylisothiazol-5-yl)ethynyl)phenyl)-5-(fluoromethyl)-2-thia-4-azabicyclo[4.1.0]hept-3-en-1-yl)-1-morpholinoprop-2-en-1-one]	–
0.08 µM	4870 µM	4.55 µM	0.129 µM	N#Cc1ccc(C#Cc2ccc(F)c([C@@]3(CF)N=C(N)S[C@@]4(CO)C[C@H]43)c2)nc1 [Example 100, 6-((3-((1S,5S,6S)-3-amino-5-(fluoromethyl)-1-(hydroxymethyl)-2-thia-4-azabicyclo[4.1.0]hept-3-en-5-yl)-4-fluorophenyl)ethynyl)nicotinonitrile]	–
0.047 µM	239 µM	2.55 µM	0.372 µM	N#C/C=C/[C@]12C[C@H]1[C@@](CF)(c1cc(C#Cc3ccc(C#N)cn3)ccc1F)N=C(N)S2 [Example 107, 6-((3-((1R,5S,6S)-3-amino-1-((E)-2-cyanovinyl)-5-(fluoromethyl)-2-thia-4-azabicyclo[4.1.0]hept-3-en-5-yl)-4-fluorophenyl)ethynyl)nicotinonitrile]	–
0.005 µM	172 µM	0.166 µM	0.018 µM	Cc1cc(C#N)cnc1C#Cc1ccc(F)c([C@@]2(CF)N=C(N)S[C@@]3(/C=C/C(=O)N4CCOCC4)C[C@H]32)c1 [Example 116, 6-((3-((1R,5S,6S)-3-amino-5-(fluoromethyl)-1-((E)-3-morpholino-3-oxoprop-1-en-1-yl)-2-thia-4-azabicyclo[4.1.0]hept-3-en-5-yl)-4-fluorophenyl)ethynyl)-5-methylnicotinonitrile]	–
0.084 µM	614 µM	4.73 µM	0.623 µM	N#CC[C@]12C[C@H]1[C@@](CF)(c1cc(C#Cc3ccc(C#N)cn3)ccc1F)N=C(N)S2 [Example 106, 6-((3-((1R,5S,6S)-3-amino-1-(cyanomethyl)-5-(fluoromethyl)-2-thia-4-azabicyclo[4.1.0]hept-3-en-5-yl)-4-fluorophenyl)ethynyl)nicotinonitrile]	–
